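48-hour exposure; five concentrations; linearly interpolated endpoints. Here, GI50 denotes the concentration required for 50% inhibition of growth. TGI: concentration producing complete growth inhibition.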
Experiments:
Assay in all cases: NCI tumour cell line growth inhibition, 48 h
CAKI-1 renal = system: CAKI-1 renal
HOP-62 NSCLC = system: HOP-62 NSCLC
NCI-H23 lung = system: NCI-H23 lung
NCI-H460 lung = system: NCI-H460 lung
RXF 393 renal = system: RXF 393 renal
SF-268 CNS = system: SF-268 CNS
SK-MEL-28 melanoma = system: SK-MEL-28 melanoma
SK-MEL-5 melanoma = system: SK-MEL-5 melanoma
SNB-75 CNS = system: SNB-75 CNS
UO-31 renal = system: UO-31 renal

Structure (SMILES) | TGI (CAKI-1 renal) [µM] | TGI (HOP-62 NSCLC) [µM] | TGI (NCI-H23 lung) [µM] | TGI (NCI-H460 lung) [µM] | TGI (RXF 393 renal) [µM] | TGI (SF-268 CNS) [µM] | TGI (SK-MEL-28 melanoma) [µM] | TGI (SK-MEL-5 melanoma) [µM] | TGI (SNB-75 CNS) [µM] | TGI (UO-31 renal) [µM] | GI50 (CAKI-1 renal) [µM] | GI50 (HOP-62 NSCLC) [µM] | GI50 (NCI-H23 lung) [µM] | GI50 (NCI-H460 lung) [µM] | GI50 (RXF 393 renal) [µM] | GI50 (SF-268 CNS) [µM] | GI50 (SK-MEL-28 melanoma) [µM] | GI50 (SK-MEL-5 melanoma) [µM] | GI50 (SNB-75 CNS) [µM] | GI50 (UO-31 renal) [µM]
CC[N+](C)(CC)CCN1C(=O)c2ccccc2S1(=O)=O | > 100 | > 100 | > 100 | > 100 | > 100 | > 100 | > 100 | > 100 | > 100 | > 100 | – | – | – | – | – | – | – | – | – | –
NC(=O)CC(Nc1ncc2c(n1)-c1ccccc1OC2)C(=O)O (stereo not given) | > 100 | > 100 | > 100 | > 100 | > 100 | > 100 | > 100 | > 100 | > 100 | > 100 | – | – | – | – | – | – | – | – | – | –
COc1cc2ccnc3c2c(c1O)N(C)C=C3 | 20.6 | 46.4 | 37.5 | > 66 | 30 | 36.6 | > 66.2 | 32.5 | 38.8 | 22.3 | – | – | – | – | – | – | – | – | – | –
C=C1C[C@]23C[C@@]1(O)CC[C@H]2[C@@]12C=C[C@H](O)[C@@](C)(C(=O)O1)[C@H]2[C@@H]3C(=O)O | > 100 | > 100 | > 100 | > 100 | > 100 | > 100 | > 100 | > 100 | > 100 | > 100 | – | – | – | – | – | – | – | – | – | –
O=C1C=CC(=O)c2ncccc21 | 4.02 | 28.6 | 23.6 | 17.5 | 12.8 | 27.1 | 11.2 | 18 | 17.2 | 9.03 | – | – | – | – | – | – | – | – | – | –
CCCCCCCCCCCCCCCCCCOCC(O)COP(=O)(O)OCC1OC(n2cc(F)c(=O)[nH]c2=O)CC1O (stereo not given) | 26.8 | 4.88 | 16.9 | 21.1 | 29 | 36.5 | 28.8 | 24.1 | 27.8 | 19.6 | – | – | – | – | – | – | – | – | – | –
COc1cccc(-c2nc3sccn3c2-c2ccnc(NCCNC(=O)Nc3cccc(C(F)(F)F)c3)n2)c1 | 10.3 | 42.4 | 76.9 | 14.4 | 3.65 | 43.4 | 26.2 | 15.9 | 21.7 | 24.8 | 3.5 | 6.71 | 3.42 | 2.94 | 1.78 | 4.59 | 5.36 | 4.27 | 3.41 | 2.88
O=C(NCCO)c1ccc(Cl)cc1 | > 100 | > 100 | > 100 | > 100 | > 100 | > 100 | > 100 | > 100 | > 100 | > 100 | – | – | – | – | – | – | – | – | – | –
CCOC(=O)C1=C(C)NC(=S)NC1c1cccc(O)c1 (stereo not given) | > 100 | > 100 | > 100 | > 100 | 65.7 | > 100 | > 100 | > 100 | > 95.4 | > 100 | – | – | – | – | – | – | – | – | – | –
Cc1cc(S(=O)(=O)Nc2nnc3cc(C(F)(F)F)cc(C)n23)c(S)cc1Cl | > 100 | > 100 | > 100 | 42.5 | > 100 | > 100 | > 100 | > 100 | > 100 | > 100 | – | – | – | – | – | – | – | – | – | –

— PubChem BioAssay (NCI)
